“And” between values parts separate entries of the source, which are not always exact repeats. Identical values can stand only once. Like-named read-outs stand apart in the source and are kept apart here. Values belong to the substance of their own block, whether it stands above or below them.
Assays:
[1] = molecular target: T1, recombinant human CD1d ectodomain/β2m complex (hCD1d) (Homo sapiens, UniProt P15813+P61769); test: Intrinsic tryptophan fluorescence (ITF) binding assay
T1 construct: TEV protease cleavage site ENLYFQS (C); BirA biotinylation site (C); His7 (C); made in house; host or cells: TurboCHO cells (GenScript)
T1 sequence (P61769+P15813 fused): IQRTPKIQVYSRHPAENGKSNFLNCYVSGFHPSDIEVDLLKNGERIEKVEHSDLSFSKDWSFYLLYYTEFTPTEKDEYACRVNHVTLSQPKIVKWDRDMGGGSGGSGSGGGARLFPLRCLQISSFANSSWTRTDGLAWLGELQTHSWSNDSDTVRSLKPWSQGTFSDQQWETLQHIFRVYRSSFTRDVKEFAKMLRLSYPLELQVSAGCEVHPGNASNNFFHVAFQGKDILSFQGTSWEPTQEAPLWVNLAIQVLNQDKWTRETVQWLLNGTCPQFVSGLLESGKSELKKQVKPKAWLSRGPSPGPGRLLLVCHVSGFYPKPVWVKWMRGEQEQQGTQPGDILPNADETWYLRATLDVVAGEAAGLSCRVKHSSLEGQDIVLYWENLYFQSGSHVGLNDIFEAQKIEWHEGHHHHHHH
Experimental: For ITF assays, the concentration of hCD1d was kept constant, and intrinsic Trp fluorescence (excitation at 285 nm, emission at 335 nm) was measured as a function of increasing detergent concentration (Fossum et al., [2023]) (Figure S2). The change in relative fluorescence intensity (F − F 0/F 0) provides an indication of binding. […] This was due to limited detergent solubility and decreased hCD1d stability in the presence of a large excess of detergent (see below). […] SDS was the exception, for which Trp fluorescence of hCD1d decreased with added detergent. This could indicate a unique conformational change or destabilization of the protein.
ITF spectra were recorded from 300 to 500 nm using a Horiba FL3‐21 Fluorometer with the excitation wavelength of 285 nm and excitation/emission slits of 6.2 nm. Fluorescence spectra of 50 to 100 nM hCD1d were acquired in the absence and presence of detergents in 1X PBS pH 7.4 at 25°C. Prior to data acquisition, hCD1d and detergent or lipid samples were incubated at 37°C overnight (~12 h) to simulate in vitro and in vivo loading conditions. […] For 18:1 LPC experiments, fluorescence spectra of 100 nM hCD1d were acquired in the absence and presence of 18:1 LPC in 1X PBS pH 7.4 at 25°C. […] For all ITF experiments, the change in fluorescence signal (F − F 0/F 0) was determined at 335 nm. Three replicates were performed, and data are presented as the mean ± standard deviation (n = 3). K D values were fitted with non‐linear regression in GraphPad Prism v10.1.

AF647‐labeled hCD1d = molecular target: T2, AF647‐labeled hCD1d (Homo sapiens, UniProt P15813+P61769); test: Microscale thermophoresis (MST) binding assay
T2 construct: TEV protease cleavage site ENLYFQS (C); BirA biotinylation site (C); His7 (C); made in house; host or cells: TurboCHO cells (GenScript)
T2 sequence (P61769+P15813 fused): as above
From the text: The experimental limitations of ITF, such as low instrument sensitivity, high sample consumption, signal overlap with some ligands, and low throughput (Fossum et al., [2023]), made it necessary to employ alternative, complementary assays to quantify detergent binding to hCD1d. […] MST measures the diffusion of fluorescent molecules in response to microscopic temperature gradients (Seidel et al., [2013]). When a protein forms a complex with a ligand, changes in hydrodynamic properties, charge, or solvation energy alter its thermophoretic behavior, allowing detection of binding events. To perform MST experiments, Alexa Fluor 647 (AF647) dye was covalently attached to the primary amines of hCD1d via standard N‐hydroxysuccinimide coupling chemistry (Anderson et al., [1964]). The concentration of AF647‐hCD1d was kept constant, and the change in MST signal was measured as a function of increasing detergent concentration (Figure S3). Like ITF, any lipid or detergent that destabilizes CD1 can also alter the MST signal since unfolding changes the protein's Stokes radius and its thermophoretic behavior. […] This is why we compare MST results with ITF and nanoDSF, as described below.
For MST, hCD1d was fluorescently labeled with AF647‐NHS Ester (Invitrogen #A20006). Briefly, a 10 mM stock of AF647‐NHS was prepared in anhydrous DMSO. Then, 100 μL of 50 μM hCD1d in 1X PBS pH 7.4 was mixed with 1 μL of 10 mM AF647‐NHS (1:2 molar ratio of protein: dye). The mixture was allowed to react for 1 h in the dark at 25°C. Unreacted dye was removed from the protein–dye conjugate by performing size exclusion chromatography in the dark with a Superdex 200 Increase 10/300 GL column at a flow rate of 0.5 mL/min in SEC buffer (100 mM NaCl, 20 mM sodium phosphate, pH 7.2). The degree of labeling was determined by a NanoDrop spectrophotometer at A647 nm (dye absorbance) and A280 nm (hCD1d absorbance). The degree of labeling was determined from the ratio of dye concentration to protein concentration. The degree of labeling was ~75%.
MST experiments were performed using a Monolith NT.115 instrument (NanoTemper Technologies) using Monolith standard capillaries and the red excitation laser setup. The following settings were applied for all MST experiments: excitation power: 30%–50%, MST power: medium, before MST time: 3 s, MST on time (IR laser): 20 seconds, and after MST time: 1 s. MST measurements were analyzed using the Monolith Affinity Analysis software v2.3 and exported for plotting in GraphPad Prism v10.1. Three replicates were performed, and data are presented as the mean ± standard deviation (n = 3).
MST measurements of 100 nM AF647‐hCD1d were acquired in the absence and presence of detergents in 1X PBS pH 7.4 at 25°C. Prior to data acquisition, hCD1d and detergent or lipid samples were incubated at 37°C overnight (~12 h) to simulate in vitro and in vivo loading conditions. […] For 18:1 LPC experiments: MST data of 100 nM AF647‐hCD1d were acquired in the absence and presence of 18:1 LPC in 1X PBS pH 7.4 at 25°C.

[2] = Figure 5A, detergent binding to hCD1d, read-out: ITF - Kd (uM) average
[3] = detergent with 100 nM hCD1d, 25°C, 1X PBS pH 7.4, apparent, read-out: K D (ITF)
[4] = Figure 5B, detergent binding to hCD1d, read-out: MST - Kd (uM) average
[5] = detergent with 100 nM AF647‐labeled hCD1d, 25°C, apparent, read-out: K D (MST)

Substance: Tween 20
- F-F0/F0 (rep 1-3) ([1]; 3.0518e-8 M detergent): 0
- F-F0/F0 (rep 1-3) ([1]; 7.8125e-6 M detergent): 0.397 and 0.3783 and 0.411
- F-F0/F0 (rep 1-3) ([1]; 1.5625e-5 M detergent): 0.321 and 0.292 and 0.428
- F-F0/F0 (rep 1-3) ([1]; 3.125e-5 M detergent): 0.321 and 0.2971 and 0.409
- F-F0/F0 (rep 1-3) ([1]; 6.25e-5 M detergent): 0.469 and 0.4298 and 0.387
- F-F0/F0 (rep 1-3) ([1]; 0.000125 M detergent): 0.384 and 0.3339 and 0.39
- F-F0/F0 (rep 1-3) ([1]; 0.00025 M detergent): 0.511 and 0.3507 and 0.554
- F-F0/F0 (rep 1-3) ([1]; 0.0005 M detergent): 0.462 and 0.3634 and 0.631
- Kd [1, 2]: 4.9 µM
- Kd [1, 3]: 4.9 ± 0.7 µM
- Fnorm (rep 1-3) (AF647‐labeled hCD1d; 3.05176e-8 M detergent): 810.612 ‰ and 815.192 ‰ and 809.256 ‰
- Fnorm (rep 1-3) (AF647‐labeled hCD1d; 6.10352e-8 M detergent): 813.29 ‰ and 812.34 ‰ and 811.415 ‰
- Fnorm (rep 1-3) (AF647‐labeled hCD1d; 1.2207e-7 M detergent): 817.136 ‰ and 816.199 ‰ and 816.479 ‰
- Fnorm (rep 1-3) (AF647‐labeled hCD1d; 2.44141e-7 M detergent): 815.645 ‰ and 816.365 ‰ and 812.483 ‰
- Fnorm (rep 1-3) (AF647‐labeled hCD1d; 4.88281e-7 M detergent): 818.589 ‰ and 818.547 ‰ and 817.485 ‰
- Fnorm (rep 1-3) (AF647‐labeled hCD1d; 9.76563e-7 M detergent): 822.035 ‰ and 829.676 ‰ and 823.26 ‰
- Fnorm (rep 1-3) (AF647‐labeled hCD1d; 1.95313e-6 M detergent): 824.959 ‰ and 826.615 ‰ and 828.828 ‰
- Fnorm (rep 1-3) (AF647‐labeled hCD1d; 3.90625e-6 M detergent): 831.241 ‰ and 838.502 ‰ and 830.859 ‰
- Fnorm (rep 1-3) (AF647‐labeled hCD1d; 7.8125e-6 M detergent): 839.917 ‰ and 838.414 ‰ and 840.568 ‰
- Fnorm (rep 1-3) (AF647‐labeled hCD1d; 1.5625e-5 M detergent): 845.364 ‰ and 842.629 ‰ and 839.392 ‰
- Fnorm (rep 1-3) (AF647‐labeled hCD1d; 3.125e-5 M detergent): 839.617 ‰ and 847.737 ‰ and 840.958 ‰
- Fnorm (rep 1-3) (AF647‐labeled hCD1d; 6.25e-5 M detergent): 842.166 ‰ and 843.948 ‰ and 838.707 ‰
- Fnorm (rep 1-3) (AF647‐labeled hCD1d; 0.000125 M detergent): 841.26 ‰ and 840.691 ‰ and 839.447 ‰
- Fnorm (rep 1-3) (AF647‐labeled hCD1d; 0.00025 M detergent): 843.661 ‰ and 845.01 ‰ and 840.579 ‰
- Fnorm (rep 1-3) (AF647‐labeled hCD1d; 0.0005 M detergent): 843.68 ‰ and 846.334 ‰ and 839.195 ‰
- Fnorm (rep 1-3) (AF647‐labeled hCD1d; 0.001 M detergent, 100 nM AF647‐hCD1d): 842.084 ‰ and 846.496 ‰ and 844.53 ‰
- Kd (AF647‐labeled hCD1d; [4]): 1.79 µM
- Kd (AF647‐labeled hCD1d; [5]): 1.8 ± 0.5 µM

- F-F0/F0 (rep 1-3) ([1]; 6.1035e-9 M detergent): 0
- F-F0/F0 (rep 1-3) ([1]; 7.8125e-7 M detergent): 0.1677 and 0.1078 and 0.1575
- F-F0/F0 (rep 1-3) ([1]; 1.5625e-6 M detergent): 0.2804 and 0.1624 and 0.168
- F-F0/F0 (rep 1-3) ([1]; 3.125e-6 M detergent): 0.6451 and 0.4306 and 0.4698
- F-F0/F0 (rep 1-3) ([1]; 6.25e-6 M detergent): 0.9699 and 0.8276 and 0.7611
- F-F0/F0 (rep 1-3) ([1]; 1.25e-5 M detergent): 0.863 and 0.6745 and 0.8384
- F-F0/F0 (rep 1-3) ([1]; 2.5e-5 M detergent): 1.041 and 0.837 and 0.8177
- F-F0/F0 (rep 1-3) ([1]; 5e-5 M detergent): 1.186 and 0.8687 and 0.9274
- F-F0/F0 (rep 1-3) ([1]; 0.0001 M detergent): 1.309 and 1.057 and 0.8857
- F-F0/F0 (rep 1-3) ([1]; 0.0002 M detergent): 1.646 and 1.2423 and 1.107
- Kd [1, 2]: 4.59 µM
- Kd [1, 3]: 4.6 ± 0.9 µM
- Fnorm (rep 1-3) (AF647‐labeled hCD1d; 6.10352e-9 M detergent): 805.067 ‰ and 809.857 ‰ and 804.507 ‰
- Fnorm (rep 1-3) (AF647‐labeled hCD1d; 1.2207e-8 M detergent): 806.458 ‰ and 809.351 ‰ and 805.026 ‰
- Fnorm (rep 1-3) (AF647‐labeled hCD1d; 2.44141e-8 M detergent): 805.306 ‰ and 809.655 ‰ and 805.09 ‰
- Fnorm (rep 1-3) (AF647‐labeled hCD1d; 4.88281e-8 M detergent): 807.116 ‰ and 806.609 ‰ and 806.1 ‰
- Fnorm (rep 1-3) (AF647‐labeled hCD1d; 9.76563e-8 M detergent): 804.905 ‰ and 807.619 ‰ and 802.759 ‰
- Fnorm (rep 1-3) (AF647‐labeled hCD1d; 1.95313e-7 M detergent): 804.684 ‰ and 807.405 ‰ and 803.094 ‰
- Fnorm (rep 1-3) (AF647‐labeled hCD1d; 3.90625e-7 M detergent): 805.673 ‰ and 808.266 ‰ and 805.393 ‰
- Fnorm (rep 1-3) (AF647‐labeled hCD1d; 7.8125e-7 M detergent): 808.872 ‰ and 807.822 ‰ and 807.967 ‰
- Fnorm (rep 1-3) (AF647‐labeled hCD1d; 1.5625e-6 M detergent): 807.024 ‰ and 810.305 ‰ and 805.453 ‰
- Fnorm (rep 1-3) (AF647‐labeled hCD1d; 3.125e-6 M detergent): 820.597 ‰ and 825.116 ‰ and 819.282 ‰
- Fnorm (rep 1-3) (AF647‐labeled hCD1d; 6.25e-6 M detergent): 847.228 ‰ and 846.294 ‰ and 841.909 ‰
- Fnorm (rep 1-3) (AF647‐labeled hCD1d; 1.25e-5 M detergent): 846.069 ‰ and 855.71 ‰ and 840.031 ‰
- Fnorm (rep 1-3) (AF647‐labeled hCD1d; 2.5e-5 M detergent): 844.894 ‰ and 848.667 ‰ and 837.578 ‰
- Fnorm (rep 1-3) (AF647‐labeled hCD1d; 5e-5 M detergent): 846.685 ‰ and 845.769 ‰ and 838.247 ‰
- Fnorm (rep 1-3) (AF647‐labeled hCD1d; 0.0001 M detergent): 846.112 ‰ and 846.019 ‰ and 837.99 ‰
- Fnorm (rep 1-3) (AF647‐labeled hCD1d; 0.0002 M detergent): 847.908 ‰ and 844.822 ‰ and 840.824 ‰
- Kd (AF647‐labeled hCD1d; [4]): 3.24 µM
- Kd (AF647‐labeled hCD1d; [5]): 3.2 ± 0.1 µM
Substance: Tween 80
